Earlier results, collected in patent US8252791B2, “Purine compounds as cannabinoid receptor blockers” (Jenrin Discovery, Inc., priority 2008, dated 2012).

Conditions: patients with type 2 diabetes not treated with other anti-diabetic medications; after six months of treatment; baseline value 7.9; placebo group 0.3%

Q: With `Cc1c(C(=O)NN2CCCCC2)nn(-c2ccc(Cl)cc2Cl)c1-c1ccc(Cl)cc1` [rimonabant] as the compound, how does the HbA1c levels lowered read?
A: Its HbA1c levels lowered is 0.8%.
